Columns and labels:
[1] = system: APTK organoids; assay: APTK tumor organoids treated with UA (lysosomes, mitochondria, MHC-I by flow cytometry); assay type: cell-based, mouse; conditions: increasing concentrations of UA
Protocol: APTK colorectal organoids which harbor mutations for Apc, Trp53 and Tgfbr2 as well as expression of oncogenic KraSG12D were established and maintained as previously described (Nicolas et al., 2022; Varga et al., 2020). APTK organoids were seeded in 6 wells suspension plates: 6 droplets of 50 l Matrigel (Corning) per well were used. To generate OVA-APTK, colon organoids were isolated from unchallenged OVA mice (The Jackson Laboratory) as previously described (Nicolas et al., 2022). Liposomes CRISPR/Cas9 technology-based transfection was used for targeted knockout of the following mutated colorectal cancer-related genes: Apc (gRNA: […])(SEQ ID NO:1), Trp53 gRNA: […]) (SEQ ID NO:2), and Tgfbr2 (gRNA: […]) (SEQ ID NO:3) as previously described (Schwank and Clevers, 2016). Cas9 plasmid (Addgene; #41815) was used along gRNA plasmids generated from addgene #41819 plasmid by cloning the gRNA of interest instead of GFP targeting gRNA. Firstly, Apc knockout (A) organoids were functionally selected by the withdrawal of R-spondin from the culture medium. Secondly, Apc Trp53 (AT) knockout organoids were selected for Trp53 loss with 5 μM of MDM2 inhibitor (Nutlin-3) (Biomole, cat no. 10004372). Thirdly, Apc Trp53 Tgfbr2 (APT) knockout organoids were selected with […] recombinant TGFβ (R&D Systems; 7666-MB). Finally, KrasG12D gain of function mutation was obtained by overexpressing the active murine version of Kras gene (cloned in house based on Addgene plasmid #111164, Map-S5) in APT organoids. Apc, Trp53, Tgfbr2 and KrasG12D (APTK) OVA organoids were selected by 2 μg/mL puromycin (Merck; 58-58-2) and withdrawal of EGF and noggin from the culture medium. In order to study the effect of UA on lysosome formation, mitochondria reduction as well as antigen presentation, organoids were treated with 25-50 μM UA for 24-48 h. Organoids were subsequently stained with a MHC-I antibody (AF6-88.5; 116516; BioLegend), Mitotracker Deep Red (250 nm; ThermoFisher) and Lysotracker Red DND-99 (75 nM; ThermoFisher).

[2] = system: APTK-s.c. tumors; assay: Subcutaneous APTK organoid tumors, UA diet, with TIL analysis; assay type: in vivo, mouse
Protocol: Urolithin A containing diet (2.28 g/kg) or AIN− 93G control food (Brogaarden) were given ad libitum once introduced for experimental purpose at the indicated time.
For subcutaneous colorectal cancers, APTK organoids were mechanistically disrupted, incubated with Accutase to generate a single cell suspension and reconstituted in PBS 20% Matrigel (Corning) for subcutaneous transplantation. Tumor sizes were measured at the indicated time after transplantation and tumor volume quantified as ½(width2×length). Urolithin A or control food regiment were initiated either one week before tumor challenge or 11 days after tumor development. Therapeutic diets were maintained throughout the experiment unless indicated otherwise.
Tumors were minced and digested with Tumor & Tissue Dissociation Reagent (BD Horizon) for 30 min. The remaining organ pieces were filtered through a 70 m cell strainer. Cells were then washed with PBS 1% BSA and 2 mM EDTA. Immune cells were enriched on a 30%/40%/75% Percoll gradient after a 1700 rpm 17 min centrifugation. Then, tumor immune filtrates or activated T cells were stained with Fixable Viability Dye-eF780 (65-0865-14; eBioscience), αCD45-FITC (30-F11; 11-0451-85; eBioscience), αCD11b-BV650 (M1/70; 56340; BD) α-CD11c-BV785 (HL3; 563735; BD), aLy6G-BV605 (53-6.7; 563005; BD), aLy6C-AF700 (HK1.4; 128024; Biolegend), aF4/80-PE (BM8; 12-4801-82, eBioscience), aPD-L1-PECy7 (MIH5; 25-5982-80, eBioscience); or with Fixable Viability Dye-eF780 (ebioscience), αCD45-BV786 (30-F11; 564225; BD), αCD4-BUV496 (GK1.5; 564667; BD), αCD8-BV605 (100744; Biolegend), aPD1-APC (J43; 17-9985-82; eBioscience), aTIM-3-PECy7 (RMT3-23; 119715; Biolegend), aCTLA4-PE (UC10-4B9; 106305; Biolegend) and aLag3-BV421 (C9B7W; 125221, Biolegend); or with Fixable Viability Dye-eF780 (eBioscience), αCD4-FITC (H129.19; 553650; BD), αCD8-APC (53-6.7; 17-0081-83; eBioscience), αCD44-AF400 (IM7; 103026; Biolegend), αCD62L-BV785 (MEL-14; 104440; Biolegend), αSca-1-PerCP-Cy5.5 (D7; 45-5981-82; eBioscience), αCD95-PE (Jo2; 554258; BD); or with Fixable Viability Dye-eF780 (eBioscience), αCD8-BV650 (53-6.7; 563234; BD), αCD4-BUV496 (GK1.5; 564667; BD), αCD127-APC (A7R34; 17-1271-82; eBioscience), αCD95-FITC (SA367H8;152605; Biolegend), αCD44-AF400 (IM7; 103026; Biolegend), αCD62L-BV785 (MEL-14; 104440; Biolegend), αSca-1-PerCP-Cy5.5 (D7; 45-5981-82; eBioscience) followed by intracellular staining of aTCF1-PE (S33-966; 564217; BD), or PGC-1α (sc-518025; D-5; santa cruz), or aCyclinD1 (MA5-28534, DCS-6; Invitrogen) with transcription factor buffer set kit (BD Biosciences). To study cytokine expression, tumor immune infiltrates were stimulated ex vivo with 20 ng/mL PMA and 1 g/mL Ionomycin (Sigma) for 3 h in T cell activation medium with Brefeldin A (Biolegend).

[3] = system: CD19-CAR T cells / Nalm-6 cells; assay: CD19-CAR T cell generation in presence of UA and Nalm-6 killing; assay type: cell-based, human
[4] = system: CEA-CAR T cells / CEA-expressing human CRC organoids; assay: CEA-CAR T cells exposed to UA and killing of human CRC organoids; assay type: cell-based
[5] = system: mouse T lymphocytes; assay: Mitochondrial content (Mitotracker positive cells) in mouse T lymphocytes; assay type: cell-based; conditions: 2 μM, 72 h
Protocol: Splenic murine T cells were isolated from mice aged 6-20 weeks by negative selection with EasySep mouse T cell isolation kit (Stem cell) according to the manufacturer's instructions. T cell activation was initiated using CD3/CD28 activation beads (11456D; ThermoFisher Scientific) at a ratio of 25 μl dynabeads per 0.5×10^6 T-cells. Cells were activated with test compounds at 2 μM or DMSO in T cell activation Medium (RPMI (ThermoFisher Scientific) 10% FBS (South America origin), 10 mM Hepes (Sigma), 1× Non-Essential Amino Acid, 1 mM Sodium Pyruvate, 50 μM β-Mercaptoethanol, 100 U/ml penicillin, 100 μg/ml streptomycin and 2 mM Glutamax (ThermoFisher Scientific) for 72 h. For subsequent analysis, activating beads were magnetically removed prior staining.
For flow cytometric analysis of mitochondria 500 μl of Mitotracker Red (200 nM; ThermoFisher) was applied followed by surface staining.
Cell doublets and cells debris were excluded from the analysis by gating FSC-A vs FSC-H followed by SSC-A vs SSC-H dot plots and FSC-A vs SSC-A dot plots, respectively. eFluor 780 highly positive cells, i.e, dead cells, were gated out of the analysis. Data was acquired on Canto II (BD), Fortessa (BD) and Aurora (Cytek) cytometers and analyzed with FlowJo.

[6] = system: mouse T lymphocytes; assay: Proportion of mouse T memory stem cells (Tscm); assay type: cell-based; conditions: 2 μM, 72 h
Protocol: T cells were isolated and stimulated as described in Example 14.
Tscm represent a subset of minimally differentiated T cells, which share a CD44^loCD62L^hi phenotype with naïve T cells, but are phenotypically distinct by expressing high levels of Sca1 (Gattinoni et al., 2009). Tscm are therefore identified as CD44^−CD62L^+Sca1^hi cells.
Flow cytometry and analysis was performed as described in Example 14.

[7] = C57BL/6 mice, s.c. APTK organoids, UA-supplemented diet

**Q.** What does the source list for `O=c1oc2cc(O)ccc2c2ccc(O)cc12` [UA, Urolithin A]?
**A.** MitoTracker staining [1]: loss of MitoTracker staining; formation of lysosomes (lysotracker) [1]: dose-dependent formation of lysosomes; MHC-I expression ([1]; 48 hours): marked upregulation; CD8+ T cell infiltration [2, 7]: enhanced; tumor growth [2, 7]: significantly reduced; tumor response in combination with PD-1 blockade ([2]; C57BL/6 mice, s.c. APTK tumors, UA diet plus α-PD-1): sensitized APTK tumors to PD-1 blockade; tumor suppressive effect in Pink1−/− mice ([2]; Pink1−/− mice, s.c. APTK organoids, UA diet): abrogated the tumor suppressive effect; protective effect on tumor growth in Rag1−/− mice ([2]; Rag1−/− mice (no mature T and B cells), s.c. APTK organoids, UA diet): abrogated the protective effect; CD4+ TSCM, dendritic cells, TAMs, MDSC subsets in tumors ([2]; UA diet vs control diet): no change; CD8+CD44loCD62LhiSca1hi T cells in APTK-induced tumors ([2]; UA diet vs control diet): marked increase; TCF1 expression in tumor infiltrating CD8+ T cells ([2]; UA diet vs control diet): increased expression; mitochondrial content in TIL of APTK tumors ([2]; UA diet vs control diet): increased mitochondrial content; exhaustion markers PD-1, CTLA-4 and Tim3 in CD8+ T cells ([2]; UA-fed mice): reduction; TNFα and IFNγ in tumor infiltrating CD8+ T cells ([2]; restimulated with PMA/ionomycin ex vivo): stronger induction; CAR gene delivery into CD8+ cells [3]: did not impair; CD19 CAR-T cell mediated killing of NALM-6 leukemia cells ([3]; 24 h co-culture): did not have a negative impact; markers of exhaustion (Tim3HiPD-1Hi CD8+CAR+) ([3]; three days after transduction): not affected; CAR expressing TSCM cells as share of CD8+ cells ([3]; three days post transduction, upon UA exposure): about 60%; killing of CEA-expressing human CRC organoids ([4]; 72 h co-culture): comparable killing efficacy; CAR TSCM formation in CEA-specific CAR-T cells ([4]; UA applied to previously frozen CAR-T cells): strongly enhanced

**Q.** For `O=c1oc2cc(O)ccc2c2ccc(OC3CCOCC3)cc12` [compound 33, 3-hydroxy-8-((tetrahydro-2H-pyran-4-yl)oxy)-6H-benzo[c]chromen-6-one], which “increase in the percentage of Mitotracker positive cells vs DMSO” value [5] is on record?
**A.** Its value is 19%.

**Q.** What about the “percentage of Mitotracker positive cells” value ([5]; DMSO 44%) of the same compound?
**A.** Its value is 52.5%.

**Q.** What about the “increase in the percentage of Tscm in CD8+ cells vs DMSO” value [6] of the same compound?
**A.** The value was 81%.

**Q.** And the “percentage of Tscm in CD8+ cells” value ([6]; DMSO 16.7%)?
**A.** Its value is 30.2%.

— patent US20240139149A1, “THERAPEUTIC USES OF UROLITHIN DERIVATIVES” (Vandria SA, priority 2022, published 2024)
